Source: BigSolDB 2.1

CC(C)(Oc1ccc(CCNC(=O)c2ccc(Cl)cc2)cc1)C(=O)O
Conditions | solubility (mole fraction)
in 2-butanone, 283.14 K | 0.00191
in 2-butanone, 288.16 K | 0.00227
in 2-butanone, 293.17 K | 0.00268
in 2-butanone, 298.16 K | 0.00312
in 2-butanone, 303.17 K | 0.0037
in 2-butanone, 308.14 K | 0.00436
in 2-butanone, 313.16 K | 0.00505
in 2-butanone, 318.17 K | 0.0058
in 2-butanone, 323.16 K | 0.00685
in acetonitrile, 283.24 K | 0.000113
in acetonitrile, 288.25 K | 0.000153
in acetonitrile, 293.24 K | 0.000202
in acetonitrile, 298.25 K | 0.000274
in acetonitrile, 303.24 K | 0.000355
in acetonitrile, 308.22 K | 0.00047
in acetonitrile, 313.22 K | 0.000625
in acetonitrile, 318.23 K | 0.000809
in acetonitrile, 323.24 K | 0.00103
in cyclohexanone, 283.14 K | 0.00496
in cyclohexanone, 288.19 K | 0.00605
in cyclohexanone, 293.24 K | 0.00732
in cyclohexanone, 298.14 K | 0.00891
in cyclohexanone, 303.27 K | 0.0107
in cyclohexanone, 308.13 K | 0.0128
in cyclohexanone, 313.19 K | 0.0152
in cyclohexanone, 318.22 K | 0.0177
in cyclohexanone, 323.22 K | 0.0204
in ethanol, 283.14 K | 0.00258
in ethanol, 288.24 K | 0.00282
in ethanol, 293.3 K | 0.00329
in ethanol, 298.28 K | 0.00391
in ethanol, 303.24 K | 0.00465
in ethanol, 308.22 K | 0.00538
in ethanol, 313.13 K | 0.00664
in ethanol, 318.18 K | 0.00802
in ethanol, 323.24 K | 0.00972
in ethyl acetate, 283.17 K | 0.000557
in ethyl acetate, 288.17 K | 0.000665
in ethyl acetate, 293.16 K | 0.000789
in ethyl acetate, 298.14 K | 0.000994
in ethyl acetate, 303.17 K | 0.0012
in ethyl acetate, 308.14 K | 0.00147
in ethyl acetate, 313.17 K | 0.00178
in ethyl acetate, 318.16 K | 0.0022
in ethyl acetate, 323.19 K | 0.00262
in isobutanol, 282.95 K | 0.00115
in isobutanol, 288.04 K | 0.0015
in isobutanol, 292.93 K | 0.00203
in isobutanol, 298.24 K | 0.0026
in isobutanol, 303.2 K | 0.00316
in isobutanol, 308.22 K | 0.00396
in isobutanol, 313.23 K | 0.00489
in isobutanol, 318.17 K | 0.00603
in isobutanol, 323.2 K | 0.00742
in isopentanol, 283.77 K | 0.00149
in isopentanol, 288.56 K | 0.00196
in isopentanol, 293.5 K | 0.00248
in isopentanol, 298.59 K | 0.00304
in isopentanol, 303.13 K | 0.00365
in isopentanol, 308.21 K | 0.00452
in isopentanol, 313.25 K | 0.00555
in isopentanol, 318.17 K | 0.00672
in isopentanol, 323.25 K | 0.00817
in isopropanol, 283.06 K | 0.00146
in isopropanol, 288.14 K | 0.00195
in isopropanol, 293.19 K | 0.00245
in isopropanol, 298.24 K | 0.00302
in isopropanol, 303.21 K | 0.00371
in isopropanol, 308.16 K | 0.00462
in isopropanol, 313.14 K | 0.0057
in isopropanol, 318.22 K | 0.00705
in isopropanol, 323.2 K | 0.00852
in methanol, 283.12 K | 0.00233
in methanol, 288.24 K | 0.00248
in methanol, 293.26 K | 0.00282
in methanol, 298.17 K | 0.00333
in methanol, 303.12 K | 0.00408
in methanol, 308.14 K | 0.00498
in methanol, 313.13 K | 0.00614
in methanol, 318.14 K | 0.00754
in methanol, 323.12 K | 0.00917
in methyl propionate, 283.19 K | 0.000428
in methyl propionate, 288.22 K | 0.000532
in methyl propionate, 293.23 K | 0.000651
in methyl propionate, 298.17 K | 0.000823
in methyl propionate, 303.23 K | 0.001
in methyl propionate, 308.14 K | 0.0012
in methyl propionate, 313.24 K | 0.00148
in methyl propionate, 318.16 K | 0.00182
in methyl propionate, 323.18 K | 0.00221
in n-butanol, 283.16 K | 0.00227
in n-butanol, 288.17 K | 0.0027
in n-butanol, 293.14 K | 0.00332
in n-butanol, 298.17 K | 0.00403
in n-butanol, 303.16 K | 0.00493
in n-butanol, 308.14 K | 0.00599
in n-butanol, 313.17 K | 0.00728
in n-butanol, 318.16 K | 0.00881
in n-butanol, 323.17 K | 0.0104
in n-butyl acetate, 283.17 K | 0.000327
in n-butyl acetate, 288.19 K | 0.000401
in n-butyl acetate, 293.2 K | 0.000494
in n-butyl acetate, 298.14 K | 0.000629
in n-butyl acetate, 303.19 K | 0.000779
in n-butyl acetate, 308.16 K | 0.000948
in n-butyl acetate, 313.14 K | 0.00113
in n-butyl acetate, 318.14 K | 0.00138
in n-butyl acetate, 323.2 K | 0.00167
in n-pentanol, 283.23 K | 0.00233
in n-pentanol, 288.23 K | 0.00286
in n-pentanol, 293.29 K | 0.00344
in n-pentanol, 298.5 K | 0.00408
in n-pentanol, 303.24 K | 0.00497
in n-pentanol, 308.02 K | 0.006
in n-pentanol, 313.08 K | 0.0072
in n-pentanol, 317.95 K | 0.00857
in n-pentanol, 322.74 K | 0.0103
in n-propanol, 283.13 K | 0.00239
in n-propanol, 288.18 K | 0.00289
in n-propanol, 293.27 K | 0.00351
in n-propanol, 298.53 K | 0.00421
in n-propanol, 303.33 K | 0.00517
in n-propanol, 308.23 K | 0.00617
in n-propanol, 313.37 K | 0.00729
in n-propanol, 318.35 K | 0.00856
in n-propanol, 323.26 K | 0.0104
in n-propyl acetate, 283.16 K | 0.000457
in n-propyl acetate, 288.24 K | 0.000548
in n-propyl acetate, 293.16 K | 0.000665
in n-propyl acetate, 298.18 K | 0.000819
in n-propyl acetate, 303.16 K | 0.001
in n-propyl acetate, 308.16 K | 0.00122
in n-propyl acetate, 313.18 K | 0.00146
in n-propyl acetate, 318.16 K | 0.00177
in n-propyl acetate, 323.16 K | 0.00214
in sec-butanol, 283.16 K | 0.0023
in sec-butanol, 288.17 K | 0.00294
in sec-butanol, 293.14 K | 0.00365
in sec-butanol, 298.16 K | 0.00444
in sec-butanol, 303.16 K | 0.0053
in sec-butanol, 308.14 K | 0.00642
in sec-butanol, 313.17 K | 0.00766
in sec-butanol, 318.16 K | 0.00914
in sec-butanol, 323.16 K | 0.0106
